In ChEMBL document CHEMBL5108022, “Structure-Activity relationship study of benzothiophene oxobutanoic acid analogues leading to novel stimulator of interferon gene (STING) agonists” (Eur J Med Chem, 2022):
Calls of active or inactive are those of the source. No cut-off for these calls is given here.

Experiments:
[1] = target: T1, Stimulator of interferon genes protein (Mus musculus) (UniProt Q3TBT3); experiment: Agonist activity at STING in mouse RAW-Lucia ISG cells assessed as fold change in ISG activation at 50 uM incubated for 24 hrs by Quanti-Luc or Quanti-blue reagent based luminescence assay; assay type: cell-based
T1 sequence (whole entry): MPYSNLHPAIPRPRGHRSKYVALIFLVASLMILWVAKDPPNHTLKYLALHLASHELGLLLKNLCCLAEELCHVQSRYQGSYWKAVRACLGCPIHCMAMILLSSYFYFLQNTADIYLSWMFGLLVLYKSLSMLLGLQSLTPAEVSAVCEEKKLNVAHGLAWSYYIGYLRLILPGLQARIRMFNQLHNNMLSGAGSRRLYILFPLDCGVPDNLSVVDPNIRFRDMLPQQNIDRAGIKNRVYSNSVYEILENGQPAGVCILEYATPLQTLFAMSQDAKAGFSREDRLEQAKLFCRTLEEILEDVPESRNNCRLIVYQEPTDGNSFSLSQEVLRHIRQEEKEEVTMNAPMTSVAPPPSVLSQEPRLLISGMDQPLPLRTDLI

[2] = target: T2, Stimulator of interferon genes protein (Homo sapiens, UniProt Q86WV6); experiment: Agonist activity at STING in human THP1-Blue ISG cells assessed as fold change in ISG activation at 10 uM incubated for 24 hrs by Quanti-Luc or Quanti-blue reagent based luminescence assay; assay type: cell-based; details: filed as agonist
Target sequence in this assay (Q86WV6 whole entry): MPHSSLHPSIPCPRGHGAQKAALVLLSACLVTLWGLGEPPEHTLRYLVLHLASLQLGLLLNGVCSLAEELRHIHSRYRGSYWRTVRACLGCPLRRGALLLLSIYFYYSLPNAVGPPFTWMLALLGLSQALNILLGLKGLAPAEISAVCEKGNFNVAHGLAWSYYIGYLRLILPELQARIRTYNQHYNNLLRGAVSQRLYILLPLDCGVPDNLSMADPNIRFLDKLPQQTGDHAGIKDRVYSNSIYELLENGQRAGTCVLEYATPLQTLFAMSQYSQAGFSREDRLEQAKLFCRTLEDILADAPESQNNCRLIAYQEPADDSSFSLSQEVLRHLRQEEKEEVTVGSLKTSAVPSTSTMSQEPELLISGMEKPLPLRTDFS

[3] = target: T1, Stimulator of interferon genes protein (Mus musculus); experiment: Agonist activity at STING in mouse RAW-Lucia ISG cells assessed as activation of ISG pathway incubated for 24 hrs by Quanti-Luc or Quanti-blue reagent based luminescence assay; assay type: cell-based; details: filed as agonist, dose 3.12-50 µM, DDE = dose-dependent effect
[4] = Toxicity against Balb/c mouse implanted with mouse 4T1 cells assessed as reduction in body weight at 100 mg/kg, po administered via gavage on day 1,4 and 7 and measured twice per week for 22 days; assay type: organism-based; details: in vivo, 528 h, time 22 day
[5] = test system: Stimulator of interferon genes protein (Homo sapiens), Q86WV6 [UNDEFINED MUTATION]; experiment: Agonist activity at STING H232 variant in human 293-Dual hSTING-H232 cells assessed as activation of ISG pathway at 3.3 to 30 uM incubated for 48 hrs by Quanti-Luc or Quanti-blue reagent based luminescence assay; assay type: cell-based; details: filed as agonist, dose 3.3-30 µM
Sequence of Stimulator of interferon genes protein (Homo sapiens), Q86WV6 [UNDEFINED MUTATION] (Q86WV6 whole entry, looked up, change not shown): as the sequence (Q86WV6 whole entry) above

[6] = species on record: Mus musculus; experiment: Binding affinity to mouse STING R231 variant assessed as thermal stability by measuring rightward shift in fluorescence curve at 50 uM by SYPRO orange dye based differential scanning fluorimetry assay; details: filed as agonist
[7] = target: T2, Stimulator of interferon genes protein; experiment: Agonist activity at STING in human THP1-Dual cells assessed as increase in TBK1 phosphorylation at 3.3 to 30 uM incubated for 2 to 4 hrs by Western blot analysis; assay type: cell-based; details: filed as agonist, dose 3.3-30 µM, time 2-4 hrs
Target sequence in this assay (Q86WV6 whole entry): as above

[8] = target: T2, Stimulator of interferon genes protein; experiment: Agonist activity at STING in human THP1-Dual cells assessed as ISG pathway activation incubated for 24 hrs by Quanti-Luc or Quanti-blue reagent based luminescence assay; assay type: cell-based
Target sequence in this assay (Q86WV6 whole entry): as above

[9] = test system: B16-F10; experiment: Antitumor activity against mouse B16-F10 cells implanted in immunocompetent C57BL/6 mouse assessed as inhibition of tumor growth at 100 mg/kg, po administered via gavage on day 1,4 and 7 and measured twice per week; assay type: functional, organism-based; details: time 7.0 day
[10] = test system: CT26; experiment: Antitumor activity against mouse CT26 cells implanted in immunocompetent Balb/c mouse assessed as suppression of tumor growth at 500 ug, IT administered on day 1,4 and 7 and measured twice per week; assay type: functional, cell-based; details: dose 500.0 µg, time 7.0 day
[11] = target: T2, Stimulator of interferon genes protein; experiment: Agonist activity at STING in human THP1-Dual cells assessed as increase in IFN-beta mRNA expression at 3.3 to 30 uM incubated for 6 hrs by RT-PCR analysis; assay type: cell-based; details: filed as agonist, dose 3.3-30 µM
Target sequence in this assay (Q86WV6 whole entry): as above

[12] = Toxicity in C57BL/6 mouse implanted with mouse B16-F10 cells assessed as reduction in body weight at 500 ug, IT administered on day 1,4 and 7 and measured twice per week for 8 days; assay type: cell-based; details: in vivo, other, 192 h, dose 500 µg, time 8 day
[13] = Toxicity in STING-knockout C57BL/6 mouse implanted with mouse B16-F10 cells assessed as reduction in body weight at 500 ug, IT administered on day 1,4 and 7 and measured twice per week for 8 days; assay type: cell-based; details: in vivo, other, 192 h, dose 500 µg, time 8 day
[14] = target: T2, Stimulator of interferon genes protein; experiment: Agonist activity at STING in human THP1-Dual cells assessed as increase in IRF3 phosphorylation at 3.3 to 30 uM incubated for 2 to 4 hrs by Western blot analysis; assay type: cell-based; details: filed as agonist, dose 3.3-30 µM, time 2-4 hrs
Target sequence in this assay (Q86WV6 whole entry): as above

[15] = test system: B16-F10; experiment: Antitumor activity against mouse B16-F10 cells implanted in immunocompetent C57BL/6 mouse assessed as inhibition of tumor growth at 500 ug, IT administered on day 1,4 and 7 and measured twice per week for 8 days; assay type: functional, cell-based; details: dose 500.0 µg, time 8.0 day
[16] = test system: Stimulator of interferon genes protein (Homo sapiens), Q86WV6 [UNDEFINED MUTATION]; experiment: Agonist activity at STING R232 variant in human 293-Dual hSTING-R232 cells assessed as activation of ISG pathway at 3.3 to 30 uM incubated for 48 hrs by Quanti-Luc or Quanti-blue reagent based luminescence assay; assay type: cell-based; details: filed as agonist, dose 3.3-30 µM
[17] = Toxicity in C57BL/6 mouse implanted with mouse B16-F10 cells assessed as reduction in body weight at 100 mg/kg, po administered via gavage on day 1,4 and 7 and measured twice per week; assay type: organism-based; details: in vivo, 168 h, time 7 day
[18] = Toxicity in Balb/c mouse implanted with mouse CT26 cells assessed as reduction in body weight at 500 ug, IT administered on day 1,4 and 7 and measured twice per week; assay type: cell-based; details: in vivo, other, 168 h, dose 500 µg, time 7 day
[19] = target: T2, Stimulator of interferon genes protein; experiment: Agonist activity at STING in human THP1-Dual cells assessed as increase in IP-10 mRNA expression at 3.3 to 30 uM incubated for 6 hrs by RT-PCR analysis; assay type: cell-based; details: filed as agonist, dose 3.3-30 µM
Target sequence in this assay (Q86WV6 whole entry): as above

[20] = species on record: Homo sapiens; experiment: Binding affinity to human STING 293Q variant assessed as thermal stability by measuring rightward shift in fluorescence curve at 50 uM by SYPRO orange dye based differential scanning fluorimetry assay; details: filed as agonist
[21] = test system: 4T1; experiment: Antitumor activity against mouse 4T1 cells implanted in Balb/c mouse assessed as inhibition of tumor growth at 100 mg/kg, po administered via gavage on day 1,4 and 7 and measured twice per week; assay type: functional, organism-based; details: time 7.0 day
[22] = test system: CT26; experiment: Immunological memory derived antitumor activity against mouse CT26 cells implanted in immunocompetent Balb/c mouse assessed as suppression of tumor growth at 500 ug, IT administered on day 1,4 and 7 followed by reinoculation of cells into tumor-free animal after 2 months and measured for 22 days post inoculation; assay type: functional, cell-based; details: dose 500.0 µg, time 22.0 day
[23] = target: T2, Stimulator of interferon genes protein; experiment: Displacement of cGAMP from human full length STING HAQ variant expressed in insect microsomes incubated for 16 hrs by TopCount scintillation counting method; design: species or system Microsome
Target sequence in this assay (Q86WV6 whole entry, looked up, change not shown): as the sequence (Q86WV6 whole entry) above

[24] = target: T2, Stimulator of interferon genes protein; experiment: Agonist activity at STING in human THP-1 cells assessed as increase in IFN-beta secretion incubated for 5 hrs by AlphaLISA assay; assay type: cell-based
[25] = target: T2, Stimulator of interferon genes protein; experiment: Binding affinity to STING HAQ variant (unknown origin)
Target sequence in this assay (Q86WV6 whole entry, looked up, change not shown): as the sequence (Q86WV6 whole entry) above

[26] = test system: CT26; experiment: Antitumor activity against mouse CT26 cells implanted in immunocompetent Balb/c mouse assessed as suppression of tumor growth at 250 ug, IT administered on day 1,4 and 7 and measured twice per week; assay type: functional, cell-based; details: dose 250.0 µg, time 7.0 day
[27] = Toxicity in C57BL/6 mouse implanted with mouse B16-F10 cells assessed as reduction in body weight at 50 ug, IT administered on day 1,4 and 7 and measured twice per week for 8 days; assay type: cell-based; details: in vivo, other, 192 h, dose 50 µg, time 8 day
[28] = Toxicity in STING-knockout C57BL/6 mouse implanted with mouse B16-F10 cells assessed as reduction in body weight at 50 ug, IT administered on day 1,4 and 7 and measured twice per week for 8 days; assay type: cell-based; details: in vivo, other, 192 h, dose 50 µg, time 8 day

Row | Compound | fold change (FC) ([1]; filed as agonist) | fold change (FC) [2] | other results
1 | COc1cc2cc(C(CCC(=O)O)OC)sc2cc1OC (centres undefined) | 0.5 | 1 | –
2 | COc1cc2cc(C(=O)CCC(=O)ONC3CCCCC3)sc2cc1OC | 1.1 | 25 | –
3 | COc1cc2cc(C(=O)CCC(=O)ONC(C)C)sc2cc1OC | 19.3 | 25.4 | Activity [3]: Dde; Activity [4]: Non-Toxic; Activity [5]: Active; Activity [6]: Active; Activity [7]: Active; EC50 [8]: 2.55 µM; inhibition [9]: Active; Activity [10]: Active; Activity [11]: Active; Activity [12]: Non-Toxic; Activity [13]: Non-Toxic; Activity [14]: Active; inhibition [15]: Active; Activity [16]: Active; Activity [17]: Non-Toxic; Activity [18]: Non-Toxic; Activity [19]: Active; Activity [20]: Active; inhibition [21]: Active; Activity [22]: Active
4 | COc1cc2cc(C(=O)CCC(=O)ONCc3ccccc3)sc2cc1OC | 25.3 | 22.4 | EC50 [8]: 6.14 µM
5 | CONC(=O)CCC(=O)c1cc2cc(OC)c(OC)cc2s1 | 2.7 | 24.2 | –
6 | COc1cc2cc(C(=O)NCC(=O)O)sc2cc1OC | – | 1.2 | –
7 | COc1cc2sc(C(=O)CC(C)(C)C(=O)O)cc2c(F)c1OCCCOc1c(OC)cc2sc(C(=O)CC(C)(C)C(=O)O)cc2c1F | – | – | IC50 [23]: 0.002 µM; EC50 [24]: 0.008 µM
8 | COc1cc2cc(C(=O)CCC(=O)N(O)Cc3ccccc3)sc2cc1OC | 1.1 | 2.3 | –
9 | COc1cc2cc(C(=O)NCCC(=O)O)sc2cc1OC | – | 1.2 | –
10 | COc1cc2cc(C(=O)SCC(=O)O)sc2cc1OC | 1 | 1 | –
11 | COc1cc2cc(C(O)CCC(=O)O)sc2cc1OC (centres undefined) | – | 0.9 | fold change (FC) [1]: < 1
12 | COc1cc2cc(-c3cc(C(=O)O)[nH]n3)sc2cc1OC | 1 | 1 | –
13 | COc1cc2cc(C(=O)CCC(=O)N(C)O)sc2cc1OC | 0.7 | 15 | –
14 | COc1cc2nc(C(=O)CCC(=O)O)[nH]c2cc1OC | 1.1 | 0.9 | –
15 | COc1cc2cc(C3=NOC(C(=O)O)C3)sc2cc1OC (centres undefined) | 0.9 | 3.8 | –
16 | COc1cc2cc(C(=O)CCC(=O)O)oc2cc1OC | 1 | 0.9 | –
17 | COc1cc2cc(C(=O)CCC(=O)NOCc3ccccc3)sc2cc1OC | 0.8 | 16.5 | –
18 | COc1cc2cc(CCCC(=O)O)sc2cc1OC | – | 1 | fold change (FC) [1]: < 1
19 | COc1cc2cc(C(=O)CCC(=O)O)sc2cc1OC | 13.6 | 23.5 | EC50 [8]: 8.14 µM; EC50 [25]: 1.72 µM
20 | COc1cc2cc(C(=O)CCC(=O)N(O)C(C)C)sc2cc1OC | 1.2 | 1 | –
21 | Cc1ccc2c(=O)c3cccc(CC(=O)O)c3oc2c1C | – | – | Activity [26]: Active
22 | COc1cc2cc(C(=O)CCC(=O)N(C)OC)sc2cc1OC | 0.5 | 3.2 | –
23 | Nc1ncnc2c1ncn2[C@@H]1O[C@@H]2CO[P@@](=O)(S)O[C@@H]3[C@H](O)[C@@H](CO[P@@](=O)(S)O[C@H]2[C@H]1O)O[C@H]3n1cnc2c(N)ncnc21 | – | – | Activity [27]: Non-Toxic; Activity [28]: Non-Toxic
24 | COc1cc2c(cc1OC)S(=O)(=O)C(C(=O)CCC(=O)O)=C2 | 0.7 | 1.1 | –
25 | COc1cc2cc(C(=O)CCC(=O)ONC(C)(C)C)sc2cc1OC | – | 21.2 | fold change (FC) [1]: < 1
26 | COc1cc2cc(NC(=O)CC(=O)O)sc2cc1OC | 1.1 | 1 | –
27 | COc1cc2cc(C(=O)CCCC(=O)O)sc2cc1OC | 0.8 | 1.1 | –
